Experimental data as given in patent publication US20240298638A1, “METHODS AND COMPOSITIONS FOR REDUCING MICROBIAL CONTAMINANTS DURING POULTRY PROCESSING” (DIVERSEY, INC., priority 2020, published 2024).

Test system: Salmonella Enterica ATCC 10708
Test: Antimicrobial efficacy on inoculated chicken drumettes (log10 reduction, nBPW neutralizer; Colby synergy)
Type: cell-based
Details: for Observed Average Reduction (AntiLog10 value): antiLog10 of the observed log10 reduction; for Observed Average Reduction (AntiLog10 value) / Observed Average Log10 Reduction: Salmonella Enterica ATCC 10708; for Observed Average Log10 Reduction: chicken drumettes soaked 90 seconds in composition, recovery in nBPW neutralizer

| Compound | Observed Average Reduction (AntiLog10 value) | Observed Average Log10 Reduction | antimicrobial efficiency of the organic solvent by itself (by itself) |
| --- | --- | --- | --- |
| CCC(=O)O [propionic acid] | 6.17 | 0.79 log10 | – |
| CC(O)CO (centres unmarked) [Propylene glycol] | – | – | did not provide any antimicrobial efficiency |
| CC(=O)OO [PAA, peracetic acid] | 14.15 | 1.16 log10 | – |
